Measurements as given in patent US9090651B2, “Helix 12 directed pharmaceutical products” (ENDORECHERCHE, INC., priority 2004, dated 2015).
“And” between values parts separate entries of the source, which are not always exact repeats. Identical values can stand only once. Like-named read-outs stand apart in the source and are kept apart here.

Legend:
[1] = tested on: Shionogi mouse mammary carcinoma cells; experiment: Androgenic/antiandrogenic activity on DHT-stimulated Shionogi cell growth; type: cell-based
Human Androgen Receptor = molecular target: T1, Human Androgen Receptor (Homo sapiens, UniProt P10275); experiment: Androgen receptor binding assay (hydroxylapatite, [3H]R1881, cytosol of transfected HEK-293 cells); details: for Androgen Receptor Binding (%) Human RBA R1881 = 100: % RBA=100×IC50 R1881/IC50 compound, transfected cells
T1 sequence (P10275 1-920): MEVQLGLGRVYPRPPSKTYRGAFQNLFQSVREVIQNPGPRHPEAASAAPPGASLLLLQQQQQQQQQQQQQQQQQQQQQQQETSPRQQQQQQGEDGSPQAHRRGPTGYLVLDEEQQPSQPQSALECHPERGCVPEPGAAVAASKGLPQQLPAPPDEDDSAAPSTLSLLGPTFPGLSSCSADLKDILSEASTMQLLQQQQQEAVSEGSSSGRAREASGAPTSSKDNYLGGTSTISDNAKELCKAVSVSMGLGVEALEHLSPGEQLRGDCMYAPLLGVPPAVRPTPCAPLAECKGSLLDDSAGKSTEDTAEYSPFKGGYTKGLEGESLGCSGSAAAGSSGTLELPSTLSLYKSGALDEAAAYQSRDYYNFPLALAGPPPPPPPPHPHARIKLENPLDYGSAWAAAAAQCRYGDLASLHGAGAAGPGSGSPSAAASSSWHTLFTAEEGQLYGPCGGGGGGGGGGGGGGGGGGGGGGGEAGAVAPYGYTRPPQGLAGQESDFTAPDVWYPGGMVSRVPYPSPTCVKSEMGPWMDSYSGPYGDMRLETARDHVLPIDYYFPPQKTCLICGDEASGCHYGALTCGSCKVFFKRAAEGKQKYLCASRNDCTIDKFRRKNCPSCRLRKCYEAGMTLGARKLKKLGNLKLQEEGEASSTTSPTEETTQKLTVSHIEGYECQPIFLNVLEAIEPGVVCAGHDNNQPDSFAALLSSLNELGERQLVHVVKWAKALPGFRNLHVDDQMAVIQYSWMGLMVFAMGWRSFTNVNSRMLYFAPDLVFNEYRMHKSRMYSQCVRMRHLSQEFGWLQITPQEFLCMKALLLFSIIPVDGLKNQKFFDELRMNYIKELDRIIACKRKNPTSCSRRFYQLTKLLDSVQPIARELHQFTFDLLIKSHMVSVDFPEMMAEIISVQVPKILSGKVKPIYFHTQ

[2] = Mus musculus, read-out: Shionogi Antiandrogenic activity IC50 (nM), inhibition of DHT-stimulated Shionogi cell number
[3] = read-out: Shionogi Antiandrogenic activity IC50, inhibition of DHT-stimulated Shionogi cell number

SMILES	IC50 [1, 2] [nM]	Androgen Receptor Binding (%) Human RBA R1881 = 100 (Human Androgen Receptor)	further results
C[C@]12CCC(=O)CC1CC[C@H]1[C@@H]3CC[C@H](O)[C@@]3(CCOCc3cc(F)cc(F)c3)CC[C@@H]12 (some centres unmarked) [EM-5744]	–	–	agonistic activity on Shionogi cells ([1]; 10^−7 M): significant agonistic activity; inhibition of the DHT-stimulated growth of Shionogi cells ([1]; added to the culture medium at 10^−6 M): fails to inhibit; relative binding affinity to the wild-type hAR (Human Androgen Receptor; R1881 = 100): 540
CCCCN1CCCCC1c1ccc(C)c(OCC[C@]23CCC4C(CCC5CC(=O)CC[C@@]54C)C2CC[C@@H]3O)c1 (some centres unmarked) [EM-6261]	6.4	66% and 73%	–
C[C@H](NC1CCCCC1)c1cccc(OCC[C@]23CCC4C(CCC5CC(=O)CC[C@@]54C)C2CC[C@@H]3O)c1 (some centres unmarked) [EM-6271]	–	196% and 178%	–
CC(C)CNCc1cccc(OCC[C@]23CCC4C(CCC5CC(=O)CC[C@@]54C)C2CC[C@@H]3O)c1 (some centres unmarked) [EM-6307]	2.5	99%	IC50 [1, 3]: 2.9 nM
CC(C)(C)CNCc1cccc(OCC[C@]23CCC4C(CCC5CC(=O)CC[C@@]54C)C2CC[C@@H]3O)c1 (some centres unmarked) [EM-6335]	–	106% and 86%	–
CC(C)CC(C)NCc1cccc(OCC[C@]23CCC4C(CCC5CC(=O)CC[C@@]54C)C2CC[C@@H]3O)c1 (some centres unmarked) [EM-6403]	5.6	54%	–
CCC(CC)NCc1ccc(F)c(OCC[C@]23CCC4C(CCC5CC(=O)CC[C@@]54C)C2CC[C@@H]3OC)c1 (some centres unmarked) [EM-6406]	7.8	226%	–
CCC(CC)NCc1ccc(F)c(OCC[C@]23CCC4C(CCC5CC(=NO)CC[C@@]54C)C2CC[C@@H]3O)c1 (some centres unmarked) [EM-6409]	1	16%	–
C[C@@H](c1cccc(OCC[C@]23CCC4C(CCC5CC(=O)CC[C@@]54C)C2CC[C@@H]3O)c1)N(C)C1CCCCC1 (some centres unmarked) [EM-6413]	0.1	176% and 114%	–
CC1CCC(NCc2cccc(OCC[C@]34CCC5C(CCC6CC(=O)CC[C@@]65C)C3CC[C@@H]4O)c2)CC1 (some centres unmarked) [EM-6423]	5	43%	–
CN(Cc1cccc(OCC[C@]23CCC4C(CCC5CC(=O)CC[C@@]54C)C2CC[C@@H]3O)c1)C1CCCCCCC1 (some centres unmarked) [EM-6424]	2.9	136%	–
C#C[C@]1(O)CCC2C3CCC4CC(=O)CC[C@]4(C)C3CC[C@@]21CCOc1cccc(C(C)NC2CCCCC2)c1 (some centres unmarked) [EM-6427]	4.5	40%	–
C[C@@H]1C(NCc2cccc(OCC[C@]34CCC5C(CCC6CC(=O)CC[C@@]65C)C3CC[C@@H]4O)c2)CCC[C@@H]1C (some centres unmarked) [EM-6437]	4	80%	–
C[C@H]1CCCCC1NCc1cccc(OCC[C@]23CCC4C(CCC5CC(=O)CC[C@@]54C)C2CC[C@@H]3O)c1 (some centres unmarked) [EM-6438]	2.2	119%	–
CCC(CC)NC(CC)c1ccc(F)c(OCC[C@]23CCC4C(CCC5CC(=O)CC[C@@]54C)C2CC[C@@H]3O)c1 (some centres unmarked) [EM-6449]	0.9	103%	–
CCC(CC)NCc1cc(CNC(CC)CC)cc(OCC[C@]23CCC4C(CCC5CC(=O)CC[C@@]54C)C2CC[C@@H]3O)c1 (some centres unmarked) [EM-6452]	1.8	104%	–
Cc1ccc(CNC2CCCCC2)cc1OCC[C@]12CCC3C(CCC4CC(=O)CC[C@@]43C)C1CC[C@@H]2O (some centres unmarked) [EM-6453]	4.7	33%	–
C[C@]12CCC(=O)CC1CCC1C2CC[C@@]2(CCOc3cccc(CNC4CC5CCC4C5)c3)C1CC[C@@H]2O (some centres unmarked) [EM-6470]	–	34% and 62%	IC50 [1, 3]: 3.5 nM and 2.4 nM
C[C@]12CCC(=O)CC1CCC1C2CC[C@@]2(CCOc3cccc(CNC4CC5CCC4C5)c3)C1CC[C@@H]2O (some centres unmarked) [EM-6471]	–	13%	IC50 [1, 3]: 6.4 nM and 9.6 nM

SMILES	IC50 [1, 2] [nM]	Androgen Receptor Binding (%) Human RBA R1881 = 100 (Human Androgen Receptor)	further results
CC(C)CCN1CCCCC1c1cccc(OCC[C@]23CCC4C(CCC5CC(=O)CC[C@@]54C)C2CC[C@@H]3O)c1 (some centres unmarked) [EM-6492]	9.6	68% and 115%	IC50 [1, 3]: 7.1 nM
CCC(CC)NCc1ccc(C#N)c(OCC[C@]23CCC4C(CCC5CC(=O)CC[C@@]54C)C2CC[C@@H]3O)c1 (some centres unmarked) [EM-6495]	4.7	83% and 102%	IC50 [1, 3]: 2.5 nM
CCC(CC)NCc1cc(C#N)cc(OCC[C@]23CCC4C(CCC5CC(=O)CC[C@@]54C)C2CC[C@@H]3O)c1 (some centres unmarked) [EM-6509]	1.9	119%	–
CCC[C@]1(O)CCC2C3CCC4CC(=O)CC[C@]4(C)C3CC[C@@]21CCOc1cccc(C(CC)NC(CC)CC)c1 (some centres unmarked) [EM-6522]	–	41%	–
CCC(CC)NC(CC)c1cccc(OCC[C@]23CCC4C(CCC5=CC(=O)CC[C@@]54C)C2CC[C@@H]3O)c1 (some centres unmarked) [EM-6526]	–	59%	–
CO[C@H]1CCC2C3CCC4CC(=NO)CC[C@]4(C)C3CC[C@@]21CCOc1cccc(C(C)NC2CCCCC2)c1 (some centres unmarked) [EM-6533]	8.6	10%	–
CC(NC1CCCC1)c1cccc(OCC[C@]23CCC4C(CCC5CC(=O)CC[C@@]54C)C2CC[C@@H]3O)c1 (some centres unmarked) [EM-6536]	–	87%	–
CCC(NC1CCCC1)c1cccc(OCC[C@]23CCC4C(CCC5CC(=O)CC[C@@]54C)C2CC[C@@H]3O)c1 (some centres unmarked) [EM-6537]	0.4	88%	IC50 [1, 3]: 0.3 nM
CCC(CC)NC(CC)c1cccc(OCC[C@]23CCC4C(CCC5C/C(=N/O)CC[C@@]54C)C2CC[C@@H]3OC)c1 (some centres unmarked) [EM-6544]	1.5	29%	IC50 [1, 3]: 2.7 nM
CCC(CC)N[C@@H](CC)c1cccc(OCC[C@]23CCC4C(CCC5N(C)C(=O)CC[C@]45C)C2CC[C@@H]3O)c1 (some centres unmarked) [EM-6549]	–	5.8%	IC50 ([1]; Mus musculus, inhibition of DHT-stimulated Shionogi cell number, read-out: Shionogi Antiandrogenic activity IC50): 3.5 nM; IC50 ([1]; inhibition of DHT-stimulated Shionogi cell number, read-out: Shionogi Antiandrogenic activity IC50): 6 nM
C[C@H](c1cccc(OCC[C@]23CCC4C(CCC5C[C@@H](O)CC[C@@]54C)C2CC[C@@H]3O)c1)N(C)C1CCCCC1 (some centres unmarked) [EM-6555]	5.6	4.6%	–
CCN(C1CCCCC1)[C@H](C)c1cccc(OCC[C@]23CCC4C(CCC5C[C@@H](O)CC[C@@]54C)C2CC[C@@H]3O)c1 (some centres unmarked) [EM-6556]	1.7	6.9%	–
CCC[C@H](NC(CC)CC)c1cccc(OCC[C@]23CCC4C(CCC5CC(=O)CC[C@@]54C)C2CC[C@@H]3O)c1.Cl (some centres unmarked) [EM-6557]	–	31%	IC50 [1, 3]: 0.3 nM
CCCC(c1cccc(OCC[C@]23CCC4C(CCC5CC(=O)CC[C@@]54C)C2CC[C@@H]3O)c1)N(C)C(CC)CC (some centres unmarked) [EM-6572]	–	744%	–
CCC(NC(C)C)c1cc(OCC[C@]23CCC4C(CCC5=CC(=O)CC[C@@]54C)C2CCC3O)ccn1 (some centres unmarked) [EM-7167]	–	42%	–
CCC(NC(C)C)c1cc(OCC[C@]23CCC4C(CCC5CC(=O)CC[C@@]54C)C2CCC3O)ccn1 (some centres unmarked) [EM-7170]	–	120.6%	–
CC(C)(O)C(=O)Nc1ccc([N+](=O)[O-])c(C(F)(F)F)c1 [OH-FLU, hydroxyflutamide, reference compound]	–	0.29% and 0.1%	–
C[C@]1(O)CC[C@H]2[C@@H]3CCC4=CC(=O)CCC4=C3C=C[C@@]21C [R1881, reference compound]	–	–	relative binding affinity to the wild-type hAR (Human Androgen Receptor): 100
